Measurements taken from patent US12257237B2 (priority 2017, dated 2025).
“And” between values parts separate entries of the source, which are not always exact repeats. Identical values can stand only once.

What was measured:
TC-71 Ewing sarcoma = experiment: Antitumour activity in TC-71 Ewing sarcoma xenograft model; type: in vivo, Athymic nude mice
Description: (§1) Experiments were performed with female Athymic nude mice, 9-10 weeks old obtained from Harlan Laboratories (Udine, Italy). They were maintained under Specific Pathogen Free conditions with constant temperature and humidity, according to the institutional guidelines.
(§2) Tumour growth mice was monitored two/three times a week (depending on tumour growth rate, to avoid unnecessary stress to the animals) by Vernier caliper. Mice were sacrificed when tumour reached a mean weight of 2±0.5 gr. The antitumour activity will be expressed as T/C %, where T and C were the mean tumour weight of treated and control groups, respectively. Mice were monitored daily and weighted at least two times a week. Tolerability was evaluated on the basis of body weight loss (BWL) and clinical observation.
Statistical analysis was performed with GraphPad Prism version 6.01 software (GraphPad software, Inc., La Jolla, CA, USA). ANOVA test was performed to evaluate if there were statistically significant differences between treated and control groups.
5×10^6 TC-71 cells were inoculated subcutaneously in the right flank of mice. The growing tumour masses were measured with the aid of a Vernier caliper, and the tumour weights (1 mm^3=1 mg) were calculated by the formula: length×(width) 2/2. When tumour load achieved about 100 mg, mice were randomized into the experimental groups and treatment started.

[1] = Drug tolerability (body weight) in TC-71 Ewing sarcoma xenograft model; type: in vivo, Athymic nude mice; conditions: Irinotecan 50 mg/kg; for BWL %: negative = loss vs day 9
Description: as §1, §2

[2] = 50 mg/kg i.v. q7dx3, day 9 from inoculum
[3] = 50 mg/kg i.v. q7dx3, day 11 from inoculum
[4] = 50 mg/kg i.v. q7dx3, day 14 from inoculum
[5] = 50 mg/kg i.v. q7dx3, day 16 from inoculum
[6] = 50 mg/kg i.v. q7dx3, day 18 from inoculum
[7] = 50 mg/kg i.v. q7dx3, day 21 from inoculum
[8] = 50 mg/kg i.v. q7dx3, day 23 from inoculum
[9] = 50 mg/kg i.v. q7dx3, day 25 from inoculum
[10] = 50 mg/kg i.v. q7dx3, day 28 from inoculum
[11] = 50 mg/kg i.v. q7dx3, day 30 from inoculum
[12] = 50 mg/kg i.v. q7dx3, day 32 from inoculum
[13] = 50 mg/kg i.v. q7dx3, day 35 from inoculum
[14] = 50 mg/kg i.v. q7dx3, day 38 from inoculum
[15] = 50 mg/kg i.v. q7dx3, day 42 from inoculum
[16] = 50 mg/kg i.v. q7dx3, day 45 from inoculum
[17] = 50 mg/kg i.v. q7dx3, day 49 from inoculum
[18] = 50 mg/kg i.v. q7dx3, day 53 from inoculum
[19] = day 9 from tumour inoculum (treatment start)

In the case of `CCc1c2c(nc3ccc(OC(=O)N4CCC(N5CCCCC5)CC4)cc13)-c1cc3c(c(=O)n1C2)COC(=O)[C@]3(O)CC` [Irinotecan, reference compound], the “TC-71 tumour weight, individual mice” value (TC-71 Ewing sarcoma; [2]) is reported as 316.8 mg and 124.6 mg and 103.5 mg and 88.1 mg, the “TC-71 tumour weight, mean” value (TC-71 Ewing sarcoma; [2]) is reported as 106.4 mg and the “TC-71 tumour weight, individual mice” value (TC-71 Ewing sarcoma; [3]) is reported as 90.6 mg and 45.7 mg and 63.3 mg. The “TC-71 tumour weight, mean” value (TC-71 Ewing sarcoma; [3]) was 76.4 mg, the “TC-71 tumour weight, individual mice” value (TC-71 Ewing sarcoma; [4]) was 87.8 mg and 16.6 mg and 9.9 mg and 17.1 mg and the “TC-71 tumour weight, mean” value (TC-71 Ewing sarcoma; [4]) was 22.6 mg. For the same molecule, the “TC-71 tumour weight, individual mice” value (TC-71 Ewing sarcoma; [5]) was 99.6 mg and 41.5 mg and 23.8 mg and 72.8 mg, the “TC-71 tumour weight, mean” value (TC-71 Ewing sarcoma; [5]) was 35.0 mg and the “TC-71 tumour weight, individual mice” value (TC-71 Ewing sarcoma; [6]) was 44.2 mg and 11.3 mg and 8.8 mg and 28.1 mg. The “TC-71 tumour weight, mean” value (TC-71 Ewing sarcoma; [6]) was 14.8 mg, the “optimal T/C” value (TC-71 Ewing sarcoma; 50 mg/kg i.v. q7dx3, day 21) was 0.4% and the “TC-71 tumour weight, individual mice” value (TC-71 Ewing sarcoma; [7]) was 9.6 mg and 2.4 mg and 6.1 mg and 7.5 mg. For the same molecule, the “TC-71 tumour weight, mean” value (TC-71 Ewing sarcoma; [7]) was 6.1 mg, the “TC-71 tumour weight, individual mice” value (TC-71 Ewing sarcoma; [8]) was 1.7 mg and 5.4 mg and the “TC-71 tumour weight, mean” value (TC-71 Ewing sarcoma; [8]) was 7.0 mg. For the same molecule, the “TC-71 tumour weight, individual mice” value (TC-71 Ewing sarcoma; [9]) was 9.9 mg and 3.3 mg, the “TC-71 tumour weight, mean” value (TC-71 Ewing sarcoma; [9]) was 5.9 mg and the “TC-71 tumour weight, individual mice” value (TC-71 Ewing sarcoma; [10]) was 6.8 mg and 1.5 mg and 3.3 mg and 2.5 mg. The “TC-71 tumour weight, mean” value (TC-71 Ewing sarcoma; [10]) was 3.5 mg, the “TC-71 tumour weight, individual mice” value (TC-71 Ewing sarcoma; [11]) was 15.4 mg and 2.7 mg and 3.8 mg and 2.6 mg and the “TC-71 tumour weight, mean” value (TC-71 Ewing sarcoma; [11]) was 6.1 mg. For the same molecule, the “TC-71 tumour weight, individual mice” value (TC-71 Ewing sarcoma; [12]) was 83.7 mg and 8.2 mg and 12.1 mg and 9.2 mg, the “TC-71 tumour weight, mean” value (TC-71 Ewing sarcoma; [12]) was 28.3 mg and the “TC-71 tumour weight, individual mice” value (TC-71 Ewing sarcoma; [13]) was 223.4 mg and 42.7 mg and 36.0 mg and 53.8 mg. The “TC-71 tumour weight, mean” value (TC-71 Ewing sarcoma; [13]) was 88.9 mg, the “TC-71 tumour weight, individual mice” value (TC-71 Ewing sarcoma; [14]) was 713.8 mg and 105.6 mg and 74.5 mg and 145.5 mg and the “TC-71 tumour weight, mean” value (TC-71 Ewing sarcoma; [14]) was 259.8 mg. For the same molecule, the “TC-71 tumour weight, individual mice” value (TC-71 Ewing sarcoma; [15]) was 2687.8 mg and 327.2 mg and 346.6 mg and 199.0 mg, the “TC-71 tumour weight, mean” value (TC-71 Ewing sarcoma; [15]) was 890.2 mg and the “TC-71 tumour weight, individual mice” value (TC-71 Ewing sarcoma; [16]) was 2443.2 mg and 627.6 mg and 589.7 mg and 305.0 mg. The “TC-71 tumour weight, mean” value (TC-71 Ewing sarcoma; [16]) was 991.4 mg, the “TC-71 tumour weight, individual mice” value (TC-71 Ewing sarcoma; [17]) was 2887.4 mg and 1184.6 mg and 1244.3 mg and 316.1 mg and the “TC-71 tumour weight, mean” value (TC-71 Ewing sarcoma; [17]) was 1408.1 mg. The “TC-71 tumour weight, individual mice” value (TC-71 Ewing sarcoma; [18]) was 3331.8 mg and 1062.6 mg and 2135.1 mg and 308.0 mg, the “TC-71 tumour weight, mean” value (TC-71 Ewing sarcoma; [18]) was 1709.4 mg and the “mice exhibiting sustained CR up to the conclusion of the experiment” value (TC-71 Ewing sarcoma; 50 mg/kg q7dx3) was 4 mice. For the same molecule, the tumour regression (TC-71 Ewing sarcoma; 50 mg/kg q7dx3) was “tumour regression in all mice”, the “Mouse body weight, group Mean” value [1, 19] was 27.4 g and the BWL % [1, 19] was 0.0%. The “Mouse body weight, group Mean” value ([1]; day 10 from tumour inoculum) was 25.8 g, the BWL % ([1]; day 10 from tumour inoculum) was −6.1% and the “Mouse body weight, group Mean” value ([1]; day 11 from tumour inoculum) was 25.6 g. The BWL % ([1]; day 11 from tumour inoculum) was −6.6%, the “Mouse body weight, group Mean” value ([1]; day 14 from tumour inoculum) was 26.9 g and the BWL % ([1]; day 14 from tumour inoculum) was −1.9%. The “Mouse body weight, group Mean” value ([1]; day 16 from tumour inoculum) was 27.0 g, the BWL % ([1]; day 16 from tumour inoculum) was −1.7% and the “Mouse body weight, group Mean” value ([1]; day 18 from tumour inoculum) was 26.0 g. The BWL % ([1]; day 18 from tumour inoculum) was −5.3%, the “Mouse body weight, group Mean” value ([1]; day 21 from tumour inoculum) was 26.2 g and the BWL % ([1]; day 21 from tumour inoculum) was −4.3%. The “Mouse body weight, group Mean” value ([1]; day 23 from tumour inoculum) was 26.5 g, the BWL % ([1]; day 23 from tumour inoculum) was −3.5% and the “Mouse body weight, group Mean” value ([1]; day 25 from tumour inoculum) was 25.4 g. The BWL % ([1]; day 25 from tumour inoculum) was −7.5%, the “Mouse body weight, group Mean” value ([1]; day 28 from tumour inoculum) was 26.4 g and the BWL % ([1]; day 28 from tumour inoculum) was −3.9%. For the same molecule, the “Mouse body weight, group Mean” value ([1]; day 30 from tumour inoculum) was 27.1 g, the BWL % ([1]; day 30 from tumour inoculum) was −1.1% and the “Mouse body weight, group Mean” value ([1]; day 32 from tumour inoculum) was 27.0 g. For the same molecule, the BWL % ([1]; day 32 from tumour inoculum) was −1.6%, the “Mouse body weight, group Mean” value ([1]; day 35 from tumour inoculum) was 27.9 g and the BWL % ([1]; day 35 from tumour inoculum) was 1.7%. The “Mouse body weight, group Mean” value ([1]; day 38 from tumour inoculum) was 27.2 g, the BWL % ([1]; day 38 from tumour inoculum) was −0.7% and the “Mouse body weight, group Mean” value ([1]; day 42 from tumour inoculum) was 28.4 g. For the same molecule, the BWL % ([1]; day 42 from tumour inoculum) was 3.5%, the “Mouse body weight, group Mean” value ([1]; day 46 from tumour inoculum) was 27.8 g and the BWL % ([1]; day 46 from tumour inoculum) was 1.5%. The “Mouse body weight, group Mean” value ([1]; day 49 from tumour inoculum) was 28.4 g, the BWL % ([1]; day 49 from tumour inoculum) was 3.6% and the “Mouse body weight, group Mean” value ([1]; day 53 from tumour inoculum) was 28.1 g. The BWL % ([1]; day 53 from tumour inoculum) was 2.3%.
